Experimental data taken from paper PMC8299157 (Antiviral Research, 2021).
Counter-ions that a name gives are not always drawn. Like-named read-outs stand apart in the source and are kept apart here.

Assays:
human N7-MTase RNMT-RAM = human N7-MTase RNMT-RAM (Homo sapiens, UniProt O43148); test: Py-FLINT N7-MTase inhibition assay; assay type: biochemical; settings: for IC50 Py-FLINT (RNMT-RAM): 2 μM Py-FLINT probe, 20 μM SAM, 20 nM RNMT-RAM
SARS-CoV-2 = assay type: cell-based; settings: for EC50: read-out: EC50 Antiviral assay
nsp14 = nsp14 (Severe acute respiratory syndrome coronavirus 2, UniProt P0DTD1); assay type: binding, SARS-CoV-2; settings: 100 μM inhibitor; for Inhibitor type (targeted binding site): from both FA competition assays
in vitro = settings: human
[1] = target: SARS-CoV-2 nsp14 N7-MTase (Severe acute respiratory syndrome coronavirus 2, UniProt P0DTD1); test: Py-FLINT N7-MTase inhibition assay; assay type: biochemical
nsp14 N7-MTase = nsp14 N7-MTase (Severe acute respiratory syndrome coronavirus 2, UniProt P0DTD1); test: RP HPLC inhibition study of Gp3A N7-methylation; assay type: biochemical, SARS-CoV-2

Chain of human N7-MTase RNMT-RAM (O43148 whole entry): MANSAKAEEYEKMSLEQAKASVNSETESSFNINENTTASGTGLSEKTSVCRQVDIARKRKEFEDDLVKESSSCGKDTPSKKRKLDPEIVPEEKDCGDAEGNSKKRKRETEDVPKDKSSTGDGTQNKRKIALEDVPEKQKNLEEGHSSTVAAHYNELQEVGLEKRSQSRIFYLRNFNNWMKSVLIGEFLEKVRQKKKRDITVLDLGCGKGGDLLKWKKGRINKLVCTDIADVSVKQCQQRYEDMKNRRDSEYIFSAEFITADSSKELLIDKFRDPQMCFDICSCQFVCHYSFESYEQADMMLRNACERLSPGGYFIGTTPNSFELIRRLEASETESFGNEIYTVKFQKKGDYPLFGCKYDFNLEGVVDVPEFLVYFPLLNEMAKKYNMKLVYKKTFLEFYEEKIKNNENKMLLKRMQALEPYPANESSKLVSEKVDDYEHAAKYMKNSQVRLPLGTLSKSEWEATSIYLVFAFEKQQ
Chain of human N7-MTase RNMT-RAM (Q9BTL3 whole entry partner): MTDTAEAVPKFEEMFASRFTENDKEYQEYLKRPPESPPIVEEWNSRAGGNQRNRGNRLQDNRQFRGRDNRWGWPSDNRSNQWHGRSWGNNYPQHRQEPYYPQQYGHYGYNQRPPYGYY

## COC(=O)c1c(NC(=O)c2cc3ccccc3o2)sc(C)c1C [OI1, Methyl 2-[(1-benzofuran-2-ylcarbonyl)amino]-4,5-dimethylthiophene-3-carboxylate]
Human N7-MTase RNMT-RAM
  IC50: > 100 µM
  IC50 Py-FLINT (RNMT-RAM): no human N7-MTase inhibition
SARS-CoV-2; Huh 7 cells
  CC50/EC50 Selectivity index: not active
nsp14
  Inhibitor type (targeted binding site): bound by nsp14 within the nucleotide binding pocket
In vitro
  CC50: > 100 µM

## NCCOc1cc(C(=O)Nc2cc(OCCN)c3ccccc3n2)nc(C(=O)Nc2cc(OCCN)c3ccccc3n2)c1 [LI3, Pyridostatin xCF3COO^-]
[1]; compounds selected from LOPAC1280 library (Table S3)
  p (Hill slope): 18.1
Human N7-MTase RNMT-RAM
  IC50: 3.1 µM
SARS-CoV-2; Huh 7 cells
  CC50/EC50 Selectivity index: 16.6 ± 6.1
SARS-CoV-2
  EC50: 3.58 ± 0.16 µM
SARS-CoV-2; listed as Pyridostatin
  EC50: < 50 µM
nsp14
  FA values in both binding assays and control sample: high FA values in both assays as well as in the control sample
nsp14 N7-MTase
  inhibition of m7Gp3A formation (RP HPLC): lower potency
In vitro
  CC50: 59.3 ± 21.6 µM

## N.N.N.N.N.N.N.N.N.N.N.N.N.N.[Cl-].[Cl-].[Cl-].[Cl-].[Cl-].[Cl-].[O-2].[O-2].[Ru+3].[Ru+3].[Ru+4] [LI6, Ruthenium red]
nsp14 N7-MTase
  inhibition of m7Gp3A formation (RP HPLC): lower potency

## Nc1c(S(=O)(=O)O)cc(Nc2ccc(Nc3nc(Cl)nc(Nc4cccc(S(=O)(=O)O)c4)n3)c(S(=O)(=O)O)c2)c2c1C(=O)c1ccccc1C2=O [LI4, Reactive Blue 2]
Human N7-MTase RNMT-RAM
  IC50: 1.5 ± 0.28 µM
SARS-CoV-2
  EC50: 16.3 ± 0.3 µM
SARS-CoV-2; listed as Reactive Blue 2
  EC50: < 50 µM
In vitro
  CC50: 52.6 ± 10.2 µM

## Cc1cc(-c2ccc(/N=N/c3ccc4c(S(=O)(=O)O)cc(S(=O)(=O)O)c(N)c4c3O)c(C)c2)ccc1/N=N/c1ccc2c(S(=O)(=O)O)cc(S(=O)(=O)O)c(N)c2c1O [FI7, Evans Blue]
Human N7-MTase RNMT-RAM
  IC50: 0.33 ± 0.05 µM
SARS-CoV-2; Huh 7 cells
  CC50/EC50 Selectivity index: 1.15 ± 0.04
SARS-CoV-2
  EC50: 31 ± 0.9 µM
In vitro
  CC50: 35.6 ± 1 µM

## O=c1c(O)c(-c2cc(O)c(O)c(O)c2)oc2cc(O)cc(O)c12 [LI8, Myricetin]
Human N7-MTase RNMT-RAM
  IC50: 3.57 ± 0.36 µM
In vitro
  CC50: 41.6 ± 7.1 µM

## O=c1c2ccccc2[se]n1-c1ccccc1 [FI6, Ebselen]
Human N7-MTase RNMT-RAM
  IC50: 23.8 ± 1.3 µM

## Nc1ncnc2c1ncn2[C@@H]1O[C@H](C[C@@H](N)CC[C@H](N)C(=O)O)[C@@H](O)[C@H]1O [Sinefungin]
Human N7-MTase RNMT-RAM
  IC50: 0.22 ± 0.02 µM
In vitro
  CC50: > 100 µM

## CC(C)N(CCC(=O)c1ccc2ccccc2c1)Cc1ccccc1 [LI7, ZM 39923 HCl]
Human N7-MTase RNMT-RAM
  IC50: 15.9 ± 3.3 µM
SARS-CoV-2; Huh 7 cells
  CC50/EC50 Selectivity index: not active
nsp14
  Inhibitor type (targeted binding site): bound by nsp14 within the nucleotide binding pocket
In vitro
  CC50: 12.2 ± 0.6 µM

## CC(=O)OC[C@H]1O[C@@H]([S-])[C@H](OC(C)=O)[C@@H](OC(C)=O)[C@@H]1OC(C)=O.CCP(CC)CC.[Au+] [FI9, Auranofin]
Human N7-MTase RNMT-RAM
  IC50 Py-FLINT (RNMT-RAM): no human N7-MTase inhibition
SARS-CoV-2
  EC50: > 100 µM
nsp14
  Inhibitor type (targeted binding site): bound by nsp14 within the nucleotide binding pocket

## O=c1cc(-c2ccccc2)oc2cc(O)c(O)c(O)c12 [baicalein]
[1]; 50 μM library compound
  inhibition of reaction progress in library screening: did not observe such activity

## O=C1c2c(O)ccc(O)c2C(=O)c2c(NCCNCCO)ccc(NCCNCCO)c21 [LI5, Mitoxantrone 2HCl]
Human N7-MTase RNMT-RAM
  IC50: 3.92 ± 0.21 µM
SARS-CoV-2; Huh 7 cells
  CC50/EC50 Selectivity index: not active
nsp14
  FA values in both binding assays and control sample: high FA values in both assays as well as in the control sample
nsp14 N7-MTase
  inhibition of m7Gp3A formation (RP HPLC): lower potency
In vitro
  CC50: < 0.04 µM

## Oc1c(Cl)cc(Cl)c(Cl)c1Cc1c(O)c(Cl)cc(Cl)c1Cl [FI11, Hexachlorophene]
Human N7-MTase RNMT-RAM
  IC50: 8 ± 3.2 µM
SARS-CoV-2
  CC50/EC50 Selectivity index: not active
nsp14
  Inhibitor type (targeted binding site): bound by nsp14 within the nucleotide binding pocket

## Clc1cccc(/C=C/c2nn3c(-c4ccco4)nnc3s2)c1 [OI2, (E)-6-(3-Chlorostyryl)-3-(furan-2-yl)-[1,2,4]triazolo[3,4-b][1,3,4]thiadiazole]
Human N7-MTase RNMT-RAM
  IC50: > 100 µM
  IC50 Py-FLINT (RNMT-RAM): no human N7-MTase inhibition
SARS-CoV-2; Huh 7 cells
  CC50/EC50 Selectivity index: not active
nsp14
  Inhibitor type (targeted binding site): bound by nsp14 within the nucleotide binding pocket
In vitro
  CC50: 71.3 ± 5.9 µM
